Values of other authors, collected in EP1072609A2, “Cytoprotective agents comprising prosaposin-related peptides” (Sakanaka, Masahiro, priority 1999, dated 2001).
Ends that are not written are not given here.

How the values were obtained:
[1] = system: neurons in the ischemic penumbra of the cerebral cortex; conditions: intracerebroventricular infusion
[2] = intravenous administration

| Molecule | expression of Bcl-xL (Bcl-xL) | cortical infarction [1] | place navigation disability [1] | share of intravenously administered peptide transferred into the brain [2] |
| --- | --- | --- | --- | --- |
| CC(C)=CCC[C@](C)(O[C@@H]1O[C@H](CO[C@@H]2O[C@H](CO)[C@@H](O)[C@H](O)[C@H]2O)[C@@H](O)[C@H](O)[C@H]1O)[C@H]1CC[C@]2(C)[C@@H]1[C@H](O)C[C@@H]1[C@@]3(C)CC[C@H](O[C@@H]4O[C@H](CO)[C@@H](O)[C@H](O)[C@H]4O[C@@H]4O[C@H](CO)[C@@H](O)[C@H](O)[C@H]4O)C(C)(C)[C@@H]3CC[C@]12C [ginsenoside Rb1] | stimulates | ameliorate | ameliorate |  |
| LSELIINNATEELLIKGL [18-MP] |  |  |  | approximately 0.03% |
